# Measurements taken from patent US20180339053A1, “USE OF 1,2-DICARBOXYLIC ACID MONOAMIDE POLYMER AS SYNERGIST FOR CHEMOTHERAPY” (Nankai University, priority 2017, published 2018).
# “And” between values parts separate entries of the source, which are not always exact repeats. Identical values can stand only once. Like-named read-outs stand apart in the source and are kept apart here.
# What was measured:
# HepG2/ADR cells = test: Cytotoxicity experiment (MTS) of polymer and anti-cancer drug on HepG2/ADR cells; format: cell-based; details: Homo sapiens, read-out: Cell Viability (%) Taxol
# Procedure: (§1) A suspension of HepG2/ADR cells diluted in 100 μL of a complete medium (a RPMI-1640 medium containing 10% fetal bovine serum and 1% penneillin/streptomycin) was added into a 96-well plate at a concentration of 5×10^3 cells per well, cultivated at 37 degrees Celsius for 24 hours. […] The solution was then aspirated, added with 100 μL of fresh complete medium and incubated continually for 24 hours. The culture medium was aspirated, added with 80 μL PBS solution and 20 μL cell proliferation reagent MTS, incubated at 37 degrees Celsius for 2 hours, and then measured with a microplate reader at 490 nm for absorbance.
# as §1, with “in 100 IA of a” for “in 100 μL of a”, “for absorbance. […]” for “for absorbance.”
# HepG2 cells = test: Cytotoxicity experiment (MTS) of polymer and anti-cancer drug on HepG2 cells; format: cell-based, human; details: for viability at 5 µg/mL / viability at 4 µg/mL: Homo sapiens; for viability at 5 µg/mL: read-out: Cell Viability (%) Taxol
# Procedure: as §1, with “HepG2” for “HepG2/ADR”, “1 hour,” for “2 hours,”
# (§2) This embodiment is an in vitro cell experiment of the effect of a polyallylamine-2,3-dimethyl maleic anhydride modifier with a molecular weight of 15,000 (PAA15K-DMA) for promoting the toxicity of different chemotherapeutic drugs on non-resistant HepG2 cells. According to the method described in Embodiment 4, the concentration of PAA15K-DMA was 25 μg/mL, and the obtained data was shown in Table 1.
# as §2, with “polyallylamine-cyclohexene-1,2-dicarboxylic acid” for “polyallylamine-2,3-dimethyl maleic anhydride”, “200,000 (PAA200K-TPA)” for “15,000 (PAA15K-DMA)”, “PAA200K-TPA” for “PAA15K-DMA”, “Table 1 and FIG.” for “Table”
# as §1, with “HepG2” for “HepG2/ADR”, “804” for “80 μL”, “1 hour,” for “2 hours,”
# as §2, with “linear polyethylenimine-cyclohexene-1,2-dicarboxylic acid” for “polyallylamine-2,3-dimethyl maleic anhydride”, “10,000 (LPEI10K-TPA)” for “15,000 (PAA15K-DMA)”, “10,” for “4,”, “LPEI10K-TPA” for “PAA15K-DMA”, “15” for “25”
# as §2, with “branched polyethyleneimine-1-methyl” for “polyallylamine-2,3-dimethyl”, “25,000 (BPEI25K-CA)” for “15,000 (PAA15K-DMA)”, “10,” for “4,”, “BPEI25K-CA” for “PAA15K-DMA”, “15” for “25”
# (§3) This embodiment is an in vitro cell experiment of the effect of a 3rd-generation dendritic polypropyleneimine-3-carboxy-2-pentenedioic acid modifier (G3 PPI-AA) for promoting the toxicity of different chemotherapeutic drugs on non-resistant HepG2 cells. According to the method described in Embodiment 10, the concentration of G3 PPI-AA was 20 μg/mL, and the obtained data was shown in Table 1.
# as §3, with “polypropyleneimine-2,3-dimethyl maleic anhydride” for “polypropyleneimine-3-carboxy-2-pentenedioic acid”, “PPI-DMA)” for “PPI-AA)”, “PPI-DMA” for “PPI-AA”, “1 and FIG. 3.” for “1.”
# This embodiment is an in vitro cell experiment of the effect of a branched polylysine-cyclohexene-1,2-dicarboxylic acid modifier having a molecular weight of 2,000 (BPLys2K-TPA) for promoting the toxicity of different chemotherapeutic drugs on non-resistant HepG2 cells. […]
# [1] = HepG2, pH = 6.5, 5 μg/mL taxol alone (control)
# [2] = HepG2, pH = 7.4, 5 μg/mL taxol alone (control)
Structure (SMILES),viability at 5 µg/mL (HepG2/ADR cells; [1]) [%],viability at 5 µg/mL (HepG2/ADR cells; [2]) [%],viability at 5 µg/mL (HepG2 cells; [1]) [%],viability at 5 µg/mL (HepG2 cells; [2]) [%],"Cell Viability (%) Taxol (HepG2 cells; pH = 6.5, 5 μg/mL taxol alone (control))","Cell Viability (%) Taxol (HepG2 cells; pH = 7.4, 5 μg/mL taxol alone (control))","viability at 4 µg/mL (HepG2 cells; HepG2, read-out: Cell Viability (%) Doxorubicin, pH = 6.5, 4 μg/mL doxorubicin alone (control)) [%]","viability at 4 µg/mL (HepG2 cells; HepG2, read-out: Cell Viability (%) Doxorubicin, pH = 7.4, 4 μg/mL doxorubicin alone (control)) [%]","Cell Viability (%) Doxorubicin (HepG2 cells; pH = 6.5, 4 μg/mL doxorubicin alone (control))","Cell Viability (%) Doxorubicin (HepG2 cells; pH = 7.4, 4 μg/mL doxorubicin alone (control))"
"CC(=O)O[C@H]1C(=O)[C@@]2(C)[C@H]([C@H](OC(=O)c3ccccc3)[C@]3(O)C[C@H](OC(=O)[C@H](O)[C@@H](NC(=O)c4ccccc4)c4ccccc4)C(C)=C1C3(C)C)[C@]1(OC(C)=O)CO[C@@H]1C[C@@H]2O [Taxol, taxol]",84.5,89.2,80.3,83.1,78.66% and 76.08%,82.38% and 80.61%,–,–,–,–
"COc1cccc2c1C(=O)c1c(O)c3c(c(O)c1C2=O)C[C@@](O)(C(=O)CO)C[C@@H]3O[C@H]1C[C@H](N)[C@H](O)[C@H](C)O1 [Doxorubicin, doxorubicin]",–,–,–,–,–,–,77,72.9,78.59% and 77.13%,70.75% and 73.82%
